“And” between values parts separate entries of the source, which are not always exact repeats. Identical values can stand only once. Like-named read-outs stand apart in the source and are kept apart here. Each block holds one compound with its values, some of them ahead of it.
Columns and labels:
in vitro [1] = conditions: human, Caco-2, pH 7.4
in vitro [2] = conditions: human, plasma
HUVEC cells [3] = assay: Endothelial cell actin cytoskeleton, Rhodamine-phalloidin staining; assay type: cell-based, human; conditions: 10 μM or 25 μM
cadherin in HUVEC cells = assay: Cadherin expression in HUVEC, Western blot; assay type: cell-based, human; conditions: 50 μM, 24 hr, vs control; p<0.05
occludin in HUVEC cells = assay: Occludin expression in HUVEC, Western blot; assay type: cell-based, human; conditions: for Effect on junctional protein expression at lower dose: 25 μM
HUVEC cells [4] = assay: In vitro endothelial tubulogenesis assay on ECMatrix; assay type: cell-based, human; conditions: 10 or 50 μM (or μg/mL); 6 hr to 16 hr; vs untreated cells
[5] = system: induced intracranial saccular aneurysms in Sprague Dawley rats; assay: Prophylactic reduction of intracranial aneurysm burden in vivo; parameters: species or system rat; conditions: vs control rats
[6] = system: induced intracranial saccular aneurysms in Sprague Dawley rats; assay: Reduction of prevalence/size of existing aneurysms in vivo; parameters: species or system rat
Caco-2 cell monolayers [7] = conditions: for Transport mechanism across Caco-2 monolayers: from B to A/A to B Papp ratios; for Caco-2 cell permeability (classification): from measured Papp values
[8] = biological target: ROCK II recombinantly-produced kinase domain (Homo sapiens (Human), UniProt O75116); conditions: read-out: ROCK II IC50; ATP 10 μM, substrate 200 nM; Fasudil mean ± SD of 3-4 experiments; BA-1049 two individual experiments
[9] = system: ROCK II recombinantly-produced kinase domain; conditions: ROCK II versus ROCK I
[10] = biological target: ROCK I recombinantly-produced kinase domain (Homo sapiens (Human), UniProt Q13464); conditions: read-out: ROCK I IC50; ATP 10 μM, substrate 200 nM; Fasudil mean ± SD of 3-4 experiments; BA-1049 two individual experiments
Chain of ROCK I recombinantly-produced kinase domain (Q13464 76-338): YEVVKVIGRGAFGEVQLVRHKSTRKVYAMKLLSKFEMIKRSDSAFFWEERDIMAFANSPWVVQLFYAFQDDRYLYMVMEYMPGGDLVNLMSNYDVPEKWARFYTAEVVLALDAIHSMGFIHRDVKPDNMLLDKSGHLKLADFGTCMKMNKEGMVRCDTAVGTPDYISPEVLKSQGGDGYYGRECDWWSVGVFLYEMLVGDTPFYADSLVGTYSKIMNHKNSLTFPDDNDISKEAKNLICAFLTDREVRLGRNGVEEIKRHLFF

HUVEC cells [11] = system: HUVEC cells
Caco-2 cell monolayers [12] = assay: Caco-2 permeability assay
[13] = known values for controls; cited from earlier work
[14] = both, human, 24 h, 35 µM, pH 7.4
[15] = both, human, plasma, 24 h, 35 µM, pH 7.4
[16] = human plasma, 24 hr dialysis, 37° C., mean of 2 replicates

Bound (human plasma proteins; [14]): 91.3%
Unbound (human plasma proteins; [15]): 8.67%
Papp A→B at 60 min (in vitro [1]): 32.3 ± 5.4 ×10⁻⁶ cm/s
Papp A→B at 60 min, 35 µM (in vitro [1]): 36 ± 1.65 ×10⁻⁶ cm/s
Papp B→A at 60 min (in vitro [1]): 31 ± 5.27 ×10⁻⁶ cm/s
Papp B→A at 60 min, 35 µM (in vitro [1]): 27.8 ± 3.68 ×10⁻⁶ cm/s
fraction unbound (in vitro [2]): 0.121
SMILES: CC(C)NC[C@H](O)COc1cccc2ccccc12 [[^3H]-Propranolol, L-(−)-[4-^3H]propranolol]

Transport mechanism across Caco-2 monolayers (Caco-2 cell monolayers [7]): passively transported
Caco-2 cell permeability (classification) (Caco-2 cell monolayers [7]): high
Bound (human plasma proteins; [14]): 19.2%
Unbound (human plasma proteins; [15]): 81.8%
Papp A→B at 60 min, 35 µM (in vitro [1]): 18.9 ×10⁻⁶ cm/s
Papp B→A at 60 min, 35 µM (in vitro [1]): 18.5 ×10⁻⁶ cm/s
SMILES: O=S(=O)(c1cccc2cnccc12)N1CCCNCC1 [Fasudil]
Effect on junctional (peripheral) actin distribution (HUVEC cells [3]): disrupted the peripheral actin to a greater extent than the stress fibers
Cadherin increase (cadherin in HUVEC cells): 1.2 fold
Effect on junctional protein expression at lower dose (occludin in HUVEC cells): no significant effect
Occludin decrease (occludin in HUVEC cells; 50 μM, 24 hr, vs control, p<0.001): 50%
Endothelial cell tube formation (HUVEC cells [4]): some tubes are visible but are not always closed and are thin
Average aneurysm size and area [5]: reduces
Level of inflammatory invasion in a given aneurysm [5]: reduces
Number of iron deposits near a given aneurysm [5]: reduces
Rho kinase activity in the endothelial and smooth muscle cells of the aneurysm wall [5]: reduces
Total number of saccular aneurysms ([5]; daily or weekly dose for 2 mo): reduces
Total number of saccular aneurysms in 6 mo and 8 mo rats ([6]; vs baseline (4 mo) results): reduces
Average aneurysm size and area ([6]; vs control rats): reduces
Level of inflammatory invasion in a given aneurysm ([6]; vs control rats): reduces
Number of iron deposits near a given aneurysm ([6]; vs control rats): reduces
Rho kinase activity in the endothelial/smooth muscle cells of the aneurysm wall ([6]; vs control rats): reduces
Total number of saccular aneurysms ([6]; vs control rats): reduces

SMILES: CC(N)C1CCN(S(=O)(=O)c2cccc3cnccc23)CC1.Cl.Cl (racemic) [BA-1049]
Effect on actin stress fibers (HUVEC cells [3]): disrupted stress fibers
Effect on junctional (peripheral) actin distribution (HUVEC cells [3]): little to no effect
Cadherin increase (cadherin in HUVEC cells): 1.2 fold
Effect on junctional protein expression at lower dose (occludin in HUVEC cells): no significant effect
Occludin increase (occludin in HUVEC cells; 50 μM, 24 hr, vs control, p<0.05): 1.3 fold
Endothelial cell tube formation (HUVEC cells [4]): some tubes are visible but are not always closed and are thin
IC50 [8]: 1600 nM and 940 nM
Selectivity for Rock II [9]: 13.1 -fold
IC50 [10]: 21000 nM
Disruption of proliferation compared with Fasudil at a given concentration (HUVEC cells [11]; 72 hr): did not disrupt proliferation to the same extent as Fasudil
Proliferation of endothelial cells (HUVEC cells [11]; 72 hr incubation): reduced proliferation
Concentration at which decrease in cell proliferation appears (HUVEC cells [11]; 72 hr, p<0.05 or p<0.01): 1 µM
Papp A to B (Caco-2 cell monolayers [7]; apical to basolateral, 60 min, pH 7.4): 10.7 ×10⁻⁶ cm/s
Papp B to A (Caco-2 cell monolayers [7]; basolateral to apical, 60 min, pH 7.4): 14.1 ×10⁻⁶ cm/s
Transport mechanism across Caco-2 monolayers (Caco-2 cell monolayers [7]): passively transported
Caco-2 cell permeability (classification) (Caco-2 cell monolayers [7]): intermediate to high
Bound (human plasma proteins; [16]): 7.26%
Unbound (human plasma proteins; [16]): 92.7%
B-A/A-B Papp Ratio (Caco-2 cell monolayers [12]): 1.31

Papp A→B at 60 min (in vitro [1]): 2.62 ± 0.81 ×10⁻⁶ cm/s
Papp A→B at 60 min, 35 µM (in vitro [1]): 1.01 ± 0.146 ×10⁻⁶ cm/s
Papp B→A at 60 min (in vitro [1]): 1.36 ± 0.362 ×10⁻⁶ cm/s
Papp B→A at 60 min, 35 µM (in vitro [1]): 0.821 ± 0.362 ×10⁻⁶ cm/s
efflux ratio at 60 min, 35 µM (in vitro [1]): 0.81
SMILES: OC[C@@H](O)[C@@H](O)[C@H](O)[C@H](O)CO [[^3H]-Mannitol, D-[1-^3H(N)]Mannitol]
% absorption in humans [13]: 15%

Source: patent US9687483B2, “Treatment of cerebral cavernous malformations and cerebral aneurysms with Rho kinase inhibitors” (priority 2015, dated 2017)
